The IC50 is the midpoint of a concentration-inhibition curve. A low value points to greater potency.

Assay [1] concerns the target T1, PI3Kα (wild-type) (Homo sapiens, UniProt P42336).
T1 construct: made in house; host or cells: SF9 insect cells
In words: PI3 Kinase TR-FRET assay, PI3Kα (wild-type). Format: biochemical. To be noted: wild-type P110/P85α, 10 μM ATP. The essentials:
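Sf9-expressed, Ni-purified p110/p85α (5 ng) with PIP2 was preincubated with compound for 60 min at room temperature in buffer with 40 mM MgCl2 and 5 mM DTT. The reaction ran 30 min at room temperature with 10 μM PIP2 and 10 μM ATP. The TR-FRET 665/615 nm ratio was used to derive IC50 from dose-response curves.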
Background: Time-resolved FRET reads energy transfer from a long-lived donor to a nearby acceptor.

The subject of assay [2] is PC3 cells. The assay is described as follows: XTT assay for cell viability, PC3 cells. The following applies: Homo sapiens, PC-3; PC3 cell proliferation, 96 hours. Format: cell-based. As for the experimental part:
Using a commercial kit from Sigma Aldrich (Catalog #X34251) and following its protocol, PC3 cells in the log phase of growth were employed and seeded at an optimal density of 1000 cell/well on to 96 well plates and incubated for 24 hours followed by the addition of compounds of formula (I) in serial dilutions. Compound dilutions were made in DMSO. The cells were incubated with the compounds of formula (I) for 96 hours and XTT tetrazolium dye (Sigma, USA) was subsequently added and incubated at 37° C. After the color formation, absorbance was measured at 465 nm in a Spectramax® Gemini spectrophotometer. EC50 values were calculated using a sigmoidal dose response curve fit in GraphPad Prism® v5 software. The tested compounds of formula (I) which caused inhibition of PC3 cell proliferation as determined by this assay protocol are shown in Table 2.
(In general: Tetrazolium dyes change colour on reduction, which living cells bring about.)

In assay [3] the test system is pAkt(T308). The assay is described as follows: In-cell Western assay, pAkt(T308), PC3 cells. Format: cell-based. To be noted: Homo sapiens, PC-3, 2 hours incubation. As to the method: Cells from human prostate cancer cell line PC3 (American Type Culture Collection (ATCC), Manassas, Va. 20108 USA) were seeded at an optimal density of 22,000 cell/well in 96-well plates containing Ham's F12K medium (90 μL) and incubated overnight. The compound dilutions were carried out in 100% DMSO followed by a dilution in the medium. Test compounds were added in serial dilutions to the wells and incubated for 2 hours. The cells were washed and fixed with 4% paraformaldehyde. After incubation at room temperature for 1 hour in the dark, blocking was done for 2 hours at room temperature. Primary antibodies for pAkt(S473) ([…] phosphorylated at serine 473), pAkt(T308) (Akt phosphorylated at threonine 308) and for pS6RP (S235/236) (phosphorylated at serine 235/236) (commercially available from Cell Signaling Technology®, whose protocol was followed for the in-cell western assay, were diluted to the required concentration and added to the corresponding wells followed by overnight incubation at 4° C. Eu-labeled rabbit (PE) (Perkin-Elmer USA catalog #AD0106) secondary antibody was added and incubated for 2 hours at room temperature. Delfia® enhancement solution (cat #1244-105, Perkin Elmer USA) was subsequently added to the plate before taking the reading at 615 nm with excitation wavelength of 340 nm, after which 0.5 μg/mL of Hoechst® 33258 dye (Catalog #86140-5, Sigma) was added to the plate and fluorescence emission was read at 460 nm with 355 nm excitation, to evaluate the correction factor. IC50 values were calculated using a sigmoidal dose-response curve fit in GraphPad Prism® v5 software.

For assay [4], the target named is T2, mTOR kinase (Homo sapiens, UniProt P42345).
T2 construct: purchased Millipore, USA
T2 sequence (P42345 1362-2549 limits assumed): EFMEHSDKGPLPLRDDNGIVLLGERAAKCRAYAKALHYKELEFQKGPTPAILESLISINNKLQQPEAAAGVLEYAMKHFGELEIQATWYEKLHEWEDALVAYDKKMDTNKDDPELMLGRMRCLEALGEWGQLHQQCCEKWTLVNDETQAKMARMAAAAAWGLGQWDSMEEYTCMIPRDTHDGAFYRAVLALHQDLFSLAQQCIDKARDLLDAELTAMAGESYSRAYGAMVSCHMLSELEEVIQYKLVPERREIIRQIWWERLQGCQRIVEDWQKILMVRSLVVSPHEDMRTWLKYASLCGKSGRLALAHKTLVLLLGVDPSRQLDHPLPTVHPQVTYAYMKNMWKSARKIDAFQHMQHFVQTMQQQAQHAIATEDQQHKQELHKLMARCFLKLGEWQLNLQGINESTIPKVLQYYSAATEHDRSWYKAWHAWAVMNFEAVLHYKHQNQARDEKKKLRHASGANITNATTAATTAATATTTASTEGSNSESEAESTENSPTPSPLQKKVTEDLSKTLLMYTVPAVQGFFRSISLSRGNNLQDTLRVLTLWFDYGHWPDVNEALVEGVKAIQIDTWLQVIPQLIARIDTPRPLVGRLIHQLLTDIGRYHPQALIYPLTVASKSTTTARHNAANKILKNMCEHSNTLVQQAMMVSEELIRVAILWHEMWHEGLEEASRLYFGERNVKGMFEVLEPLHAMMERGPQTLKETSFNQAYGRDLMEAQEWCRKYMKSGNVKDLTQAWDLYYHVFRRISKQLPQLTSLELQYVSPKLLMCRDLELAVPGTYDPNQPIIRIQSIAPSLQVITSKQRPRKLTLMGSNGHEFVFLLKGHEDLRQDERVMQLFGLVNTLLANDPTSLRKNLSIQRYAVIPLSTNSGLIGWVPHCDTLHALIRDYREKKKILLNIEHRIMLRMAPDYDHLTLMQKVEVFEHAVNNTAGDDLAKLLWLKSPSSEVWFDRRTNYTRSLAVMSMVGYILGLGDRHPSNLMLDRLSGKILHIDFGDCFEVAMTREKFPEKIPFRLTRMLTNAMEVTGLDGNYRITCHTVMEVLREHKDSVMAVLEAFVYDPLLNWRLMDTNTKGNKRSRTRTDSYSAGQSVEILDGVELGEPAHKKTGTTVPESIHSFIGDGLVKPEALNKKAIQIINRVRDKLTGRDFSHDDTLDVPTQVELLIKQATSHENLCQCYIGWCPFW
The assay is described as follows: mTOR kinase TR-FRET assay. Format: biochemical. The following applies: 20 μM ATP. The essentials: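 Test compounds were pre-incubated 60 min with mTOR (5 ng), then ULight-p70 S6K (Thr389) peptide (50 nM) and ATP (20 μM) were added in HEPES 50 mM pH 7.5, EGTA, MnCl2 3 mM. After 60 min at room temperature, EDTA stop and Eu-anti-phospho antibody TR-FRET (665/615 nm) gave IC50 from sigmoidal variable-slope fits.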

T1 sequence (P42336 whole entry, species assumed): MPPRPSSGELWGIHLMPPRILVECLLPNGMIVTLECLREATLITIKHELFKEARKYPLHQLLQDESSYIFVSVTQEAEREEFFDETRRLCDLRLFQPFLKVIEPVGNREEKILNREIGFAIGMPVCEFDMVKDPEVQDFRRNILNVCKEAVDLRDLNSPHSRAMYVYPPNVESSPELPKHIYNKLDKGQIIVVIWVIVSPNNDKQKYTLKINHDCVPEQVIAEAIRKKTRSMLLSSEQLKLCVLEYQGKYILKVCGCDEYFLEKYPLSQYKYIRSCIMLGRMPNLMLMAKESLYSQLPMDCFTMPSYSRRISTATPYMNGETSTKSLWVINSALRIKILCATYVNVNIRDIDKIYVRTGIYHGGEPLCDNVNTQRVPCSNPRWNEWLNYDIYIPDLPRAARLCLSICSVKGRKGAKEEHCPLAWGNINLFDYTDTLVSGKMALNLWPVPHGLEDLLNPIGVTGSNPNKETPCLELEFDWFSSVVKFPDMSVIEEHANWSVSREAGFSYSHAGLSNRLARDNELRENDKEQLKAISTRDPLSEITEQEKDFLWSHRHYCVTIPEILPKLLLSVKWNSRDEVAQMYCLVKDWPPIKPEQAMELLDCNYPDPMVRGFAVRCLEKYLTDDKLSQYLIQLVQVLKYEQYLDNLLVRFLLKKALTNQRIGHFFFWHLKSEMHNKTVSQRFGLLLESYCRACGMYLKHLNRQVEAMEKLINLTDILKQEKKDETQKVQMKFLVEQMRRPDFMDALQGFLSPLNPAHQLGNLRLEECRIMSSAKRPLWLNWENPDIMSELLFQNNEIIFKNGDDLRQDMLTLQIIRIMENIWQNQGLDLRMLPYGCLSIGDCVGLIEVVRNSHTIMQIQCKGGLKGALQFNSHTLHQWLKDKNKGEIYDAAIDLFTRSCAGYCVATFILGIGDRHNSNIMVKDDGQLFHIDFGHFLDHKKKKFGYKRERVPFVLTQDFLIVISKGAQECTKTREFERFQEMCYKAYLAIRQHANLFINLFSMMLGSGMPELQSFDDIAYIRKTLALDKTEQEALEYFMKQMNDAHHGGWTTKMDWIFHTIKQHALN
T1 sequence (P27986 whole entry partner, species assumed): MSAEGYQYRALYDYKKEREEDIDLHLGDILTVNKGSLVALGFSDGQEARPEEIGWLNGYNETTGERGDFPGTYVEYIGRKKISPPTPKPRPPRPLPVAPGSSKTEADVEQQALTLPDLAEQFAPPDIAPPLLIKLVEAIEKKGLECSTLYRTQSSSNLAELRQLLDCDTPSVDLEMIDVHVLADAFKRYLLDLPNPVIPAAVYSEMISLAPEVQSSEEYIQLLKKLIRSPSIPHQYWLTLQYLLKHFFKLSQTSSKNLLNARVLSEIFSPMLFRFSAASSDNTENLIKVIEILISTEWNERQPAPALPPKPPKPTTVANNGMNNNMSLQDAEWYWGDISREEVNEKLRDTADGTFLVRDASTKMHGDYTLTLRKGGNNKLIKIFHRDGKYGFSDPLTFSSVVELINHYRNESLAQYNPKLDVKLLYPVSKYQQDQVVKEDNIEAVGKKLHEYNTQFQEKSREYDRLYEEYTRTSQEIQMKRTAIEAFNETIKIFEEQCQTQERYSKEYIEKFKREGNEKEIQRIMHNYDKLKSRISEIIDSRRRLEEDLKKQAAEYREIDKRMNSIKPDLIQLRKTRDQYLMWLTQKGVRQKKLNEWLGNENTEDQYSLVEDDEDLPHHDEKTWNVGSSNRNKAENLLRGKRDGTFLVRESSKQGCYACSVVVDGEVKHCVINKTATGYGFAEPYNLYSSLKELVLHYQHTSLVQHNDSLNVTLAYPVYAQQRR

In the case of `Nc1ncc(-c2nc(N3CCOCC3)c3ncc(-c4cccc(NC(=O)c5cccnc5)c4)cc3n2)cn1` [Example 58, N-(3-(2-(2-amino-pyrimidin-5-yl)-4-morpholinopyrido[3,2-d]pyrimidin-7-yl)-phenyl)nicotinamide], the IC50 in assay [1] was less than 50 nM; in assay [2], 100 to 500 nM; in assay [3], less than 100 nM; in assay [4], less than 50 nM.

On to `Nc1ncc(-c2nc(N3CCOCC3)c3ncc(-c4cccc(NC(=O)C5CCC5)c4)cc3n2)cn1` [Example 76, N-(3-(2-(2-amino-pyrimidin-5-yl)-4-morpholinopyrido[3,2-d]pyrimidin-7-yl)-phenyl)cyclobutane-carboxamide], for which the IC50 in assay [1] was less than 50 nM; in assay [2], 100 to 500 nM; in assay [3] it was less than 100 nM; in assay [4] it was less than 50 nM.

In the case of `CNC(=O)Nc1ccc(-c2cnc3c(N4CCOCC4)nc(-c4cnc(N)nc4)nc3c2)cc1` [Example 29, 1-(4-(2-(2-amino-pyrimidin-5-yl)-4-morpholinopyrido[3,2-d]pyrimidin-7-yl)phenyl)-3-methylurea], the IC50 in assay [1] was less than 50 nM; in assay [2] it was 100 to 500 nM; in assay [3] it was 100 to 500 nM; in assay [4], less than 50 nM.

For `CNC(=O)c1cccc(-c2cnc3c(N4CCOCC4)nc(-c4cnc(N)nc4)nc3c2)c1` [Example 103, 3-(2-(2-aminopyrimidin-5-yl)-4-morpholinopyrido[3,2-d]-pyrimidin-7-yl)-N-methylbenzamide], the IC50 in assay [1] is less than 50 nM; in assay [2] it was less than 100 nM; in assay [3] it was less than 100 nM; in assay [4], 50 to 200 nM.

Consider `CC(C)CCC(=O)Nc1cccc(-c2cnc3c(N4CCOCC4)nc(-c4cnc(N)nc4)nc3c2)c1` [Example 66, N-(3-(2-(2-amino-pyrimidin-5-yl)-4-morpholinopyrido[3,2-d]pyrimidin-7-yl)phenyl)-4-methylpentanamide], for which the IC50 is less than 50 nM in assay [1], 100 to 500 nM in assay [2], 501 to 5000 nM in assay [3] and less than 50 nM in assay [4].

As for `CC(C)C(=O)Nc1cccc(-c2cnc3c(N4CCOCC4)nc(-c4cnc(N)nc4)nc3c2)c1` [Example 105, N-(3-(2-(2-amino-pyrimidin-5-yl)-4-morpholinopyrido[3,2-d]-pyrimidin-7-yl)-phenyl)isobutyramide], the IC50 was less than 50 nM in assay [1], 100 to 500 nM in assay [2], 501 to 5000 nM in assay [3] and less than 50 nM in assay [4].

Take `CN1CCN(CC(=O)Nc2ccc(F)c(-c3cnc4c(N5CCOCC5)nc(-c5cnc(N)nc5)nc4c3)c2)CC1` [Example 85, N-(3-(2-(2-aminopyrimidin-5-yl)-4-morpholinopyrido[3,2-d]pyrimidin-7-yl)-4-fluorophenyl)-2-(4-methylpiperazin-1-yl)-acetamide]: the IC50 in assay [1] was less than 50 nM; in assay [2], 100 to 500 nM; in assay [3], 100 to 500 nM; in assay [4] it was less than 50 nM.

Consider `CNC(=O)c1ccc(-c2cnc3c(N4CCOCC4)nc(-c4cnc(N)nc4)nc3c2)cc1` [Example 33, 4-(2-(2-aminopyrimidin-5-yl)-4-morpholinopyrido[3,2-d]pyrimidin-7-yl)-N-methylbenzamide], for which the IC50 was less than 50 nM in assay [1], 100 to 500 nM in assay [2], 100 to 500 nM in assay [3] and less than 50 nM in assay [4].

`CN1CCN(C(=O)c2ccc(-c3cnc4c(N5CCOCC5)nc(-c5cnc(N)nc5)nc4c3)o2)CC1` [Example 5, (5-(2-(2-Aminopyrimidin-5-yl)-4-morpholinopyrido[3,2-d]pyrimidin-7-yl)furan-2-yl)(4-methylpiperazin-1-yl)methanone]: the IC50 is less than 50 nM in assay [1], 100 to 500 nM in assay [3] and 50 to 200 nM in assay [4].

`Nc1ncc(-c2nc(N3CCOCC3)c3ncc(-c4cccc(NS(=O)(=O)C5CC5)c4)cc3n2)cn1` [Example 81, N-(3-(2-(2-amino-pyrimidin-5-yl)-4-morpholinopyrido[3,2-d]pyrimidin-7-yl)-phenyl)cyclopropane-sulfonamide]: the IC50 is less than 50 nM in assay [1], 100 to 500 nM in assay [2], less than 100 nM in assay [3] and less than 50 nM in assay [4].

With `Nc1ncc(-c2nc(N3CCOCC3)c3ncc(-c4cncc(NC(=O)C5CC5)c4)cc3n2)cn1` [Example 31, N-(5-(2-(2-amino-pyrimidin-5-yl)-4-morpholinopyrido[3,2-d]pyrimidin-7-yl)pyridin-3-yl)cyclopropane-carboxamide], the IC50 is less than 50 nM in assay [1], less than 100 nM in assay [2], 100 to 500 nM in assay [3] and less than 50 nM in assay [4].

Turning to `CC(=O)Nc1ccc(-c2cnc3c(N4CCOCC4)nc(-c4cnc(N)nc4)nc3c2)cc1` [Example 54, N-(4-(2-(2-amino-pyrimidin-5-yl)-4-morpholinopyrido[3,2-d]pyrimidin-7-yl)-phenyl)acetamide], the IC50 in assay [1] was less than 50 nM; in assay [2], 100 to 500 nM; in assay [3], less than 100 nM; in assay [4], less than 50 nM.

As to `Nc1ncc(-c2nc(N3CCOCC3)c3ncc(-c4cccc(NC(=O)CN5CCC(O)CC5)c4)cc3n2)cn1` [Example 9, N-(3-(2-(2-Aminopyrimidin-5-yl)-4-morpholinopyrido[3,2-d]pyrimidin-7-yl)-phenyl)-2-(4-hydroxypiperidin-1-yl)acetamide], the IC50 is less than 50 nM in assay [1], 100 to 500 nM in assay [2], less than 100 nM in assay [3] and less than 50 nM in assay [4].

In the case of `Nc1ncc(-c2nc(N3CCOCC3)c3ncc(-c4cccc(NS(=O)(=O)c5ccc(F)cc5)c4)cc3n2)cn1` [Example 8, N-(3-(2-(2-aminopyrimidin-5-yl)-4-morpholinopyrido[3,2-d]pyrimidin-7-yl)phenyl)-4-fluorobenzenesulfonamide], the IC50 in assay [1] was less than 50 nM; in assay [2], 501 to 5000 nM; in assay [3] it was 100 to 500 nM; in assay [4], less than 50 nM.

For the molecule `Nc1ncc(-c2nc(N3CCOCC3)c3ncc(-c4cccc(NC(=O)c5cnccn5)c4)cc3n2)cn1` [Example 64, N-(3-(2-(2-amino-pyrimidin-5-yl)-4-morpholinopyrido[3,2-d]pyrimidin-7-yl)-phenyl)pyrazine-2-carboxamide], the IC50 is less than 50 nM in assay [1] and 100 to 500 nM in assay [3].

Turning to `Nc1ncc(-c2nc(N3CCOCC3)c3ncc(-c4cccc(NC(=O)c5ccco5)c4)cc3n2)cn1` [Example 67, N-(3-(2-(2-amino-pyrimidin-5-yl)-4-morpholinopyrido[3,2-d]pyrimidin-7-yl)-phenyl)furan-2-carboxamide], the IC50 in assay [1] is less than 50 nM; in assay [2], 100 to 500 nM; in assay [3] it was 100 to 500 nM; in assay [4] it was less than 50 nM.

In the case of `Nc1ncc(-c2nc(N3CCOCC3)c3ncc(-c4cccc(NC(=O)C5CCC(O)CC5)c4)cc3n2)cn1` (centres unmarked) [Example 70, N-(3-(2-(2-amino-pyrimidin-5-yl)-4-morpholinopyrido[3,2-d]pyrimidin-7-yl)phenyl)-4-hydroxycyclohexane-carboxamide], the IC50 was less than 50 nM in assay [1], 100 to 500 nM in assay [2], 100 to 500 nM in assay [3] and less than 50 nM in assay [4].

On to `CN1CCN(CC(=O)Nc2cccc(-c3cnc4c(N5CCOCC5)nc(-c5cnc(N)nc5)nc4c3)c2F)CC1` [Example 86, N-(3-(2-(2-amino-pyrimidin-5-yl)-4-morpholinopyrido[3,2-d]-pyrimidin-7-yl)-2-fluoro-phenyl)-2-(4-methyl-piperazin-1-yl)acetamide], for which the results for the IC50 in assay [1], in assay [3] and in assay [4] were less than 50 nM, 501 to 5000 nM and 50 to 200 nM, respectively.
